How the values were obtained:
Format in all cases: in vitro ADME
[1] = Metabolic stability screen, human liver microsomes; details: for HLM % turnover: 10 μM substrate, 30 min, 37° C., 1 mM NADPH
Protocol: (§1) Each substrate (10 μM) was incubated with microsomal protein (0.1-0.5 mg/ml) in 50 mM potassium phosphate buffer (pH 7.4) in 48-Well plate. The enzyme reaction was initiated by the addition of 1 mM NADPH, then incubated at 37° C. in a Forma Scientific incubator (Marietta, Ohio, USA) with gentle shaking. The reactions were quenched by the addition of 800 μl of ACN/MeOH (1:1, v/v), containing 0.5 μM of internal standard (IS), after 30 min incubation. Samples were then filtered by using Captiva 96-Well Filtration (Varian, Lake Forest, Calif., USA) and analyzed by LC/MS (mass spectrometry). Liver microsomal incubations were conducted in duplicate.
The parent remaining in the incubation mixture was determined by LC/MS. The LC/S system consisted of an Agilent 1100 series (Agilent Technologies, Waldbronn, Germany) and API 2000 (MDS SCIEX, Ontario, Canada). A Luna C8(2) (50×2.0 mm, particle size 3 μm, Phenomenex, Torrance, Calif., USA) was used to quantify each compound at ambient temperature. The mobile phase consisted of (A): 10 mM NH4AC (pH 3.3) and […]: 100% ACN and was delivered at a flow rate of 0.2 ml/min. Elution was achieved using a linear gradient of 0-100% B over 3 min, then held 100% B for 4 min, and returned to 100% A in 1 min. The column was equilibrated for 7 min before the next injection.
(§2) The peak area ratios (each substrate over IS) at each incubation time were expressed as the percentage of the ratios (each substrate over IS) of the control samples (0 min incubation). The parent remaining in the incubation mixture was expressed as the percentage of the values at 0 min incubation. The percentage turnover is calculated using the following equation (Y% turnover=100% […]−X% parent remaining) and is recorded as the percentage turnover in the Table 1.

[2] = Metabolic stability screen, rat liver microsomes; details: 10 μM substrate, 30 min, 37° C., 1 mM NADPH
Protocol: as §1
(§3) The parent remaining in the incubation mixture was determined by LC/MS. […] A Luna C8(2) (50×2.0 mm, particle size 3 μm, Phenomenex, Torrance, Calif., USA) was used to quantify each compound at ambient temperature. […]
as §2

[3] = In vitro metabolic half-life study, human hepatocytes; details: 1 μM
Protocol: (§4) Example 5 (1 μM) was incubated with microsomal protein (0.5-1.0 mg/ml) in 50 mM potassium phosphate buffer (pH 7.4). After 5 minutes, preincubation at 37° C. in a shaking water bath, the enzyme reaction was initiated by the addition of 1 mM NADPH. Aliquots (200 μl) were removed and added to 100 μl of ACN/MeOH (1:1, v/v), containing 0.5 μM of IS, at the following time points: 0, 5, 10, 15, 20 and 30 min. Samples were then centrifuged at 14000×g for 10 min and the supernatant was analyzed by LC/MS. Additionally, Example 5 (1 μM) was also incubated with hepatocytes in complete culture medium (Waymouth MB 752/1). The reaction was terminated at 0, 1, 3 and 6 hours with the addition of 250 μl of ACN/MeOH (1:1, v/v). Samples were centrifuged and the supernatant was analyzed by LC/MS as described above. […]
as §3
(§5) In vitro half-life of substrate depletion was determined and converted to hepatic intrinsic clearance (Obach R Scott: Prediction of human clearance of twenty-nine drugs from hepatic microsomal intrinsic clearance data: an examination of in vitro half-life approach and nonspecific binding to microsomes. Drug metabolism and Disposition. 1999, 27:1350-1359).

[4] = In vitro metabolic half-life study, rat hepatocytes; details: 1 μM
Protocol: as §4, §3, §5

[5] = In vitro metabolic half-life study, monkey hepatocytes; details: 1 μM
Protocol: as §4, §3, §5

[6] = In vitro metabolic half-life study, dog liver microsomes
Protocol: as §4, §3, §5

[7] = In vitro metabolic half-life study, human liver microsomes; details: 1 μM
Protocol: as §4, §3, §5

[8] = In vitro metabolic half-life study, dog hepatocytes; details: 1 μM
Protocol: as §4, §3, §5

[9] = In vitro metabolic half-life study, mouse liver microsomes; details: 1 μM
Protocol: as §4, §3, §5

[10] = In vitro metabolic half-life study, monkey liver microsomes
Protocol: as §4, §3, §5

[11] = Metabolic stability screen, mouse liver microsomes; details: 10 μM substrate, 30 min, 37° C., 1 mM NADPH
Protocol: as §1, §3, §2

[12] = In vitro metabolic half-life study, mouse hepatocytes; details: 1 μM
Protocol: as §4, §3, §5

[13] = In vitro metabolic half-life study, rat liver microsomes; details: 1 μM
Protocol: as §4, §3, §5

Q: For `CC(C)(C(=O)NC1C2CC3CC(C2)CC1C3)c1ccccc1` (centres unmarked) [Example 1, N-2-adamantyl-2-methyl-2-phenylpropanamide], which “Metabolism in human liver microsomes (HLM), in words” value (“Metabolism in human liver microsomes” for short) [1] is on record?
A: rapidly metabolized

Q: And the HLM % turnover [1]?
A: 83%

Q: For `CC(C)(C(=O)NC1C2CC3CC(C2)CC1C3)c1ccc(Cl)cc1` (centres unmarked) [Example 2, N-2-adamantyl-2-(4-chlorophenyl)-2-methylpropanamide], which “Metabolism in human liver microsomes” value [1] is on record?
A: rapidly metabolized

Q: What about the HLM % turnover [1] of the same molecule?
A: 84%

Q: What does the source list for `O=C(NC1C2CC3CC(C2)CC1C3)C1(c2ccccc2)CC1` (centres unmarked) [Example 3, N-2-adamantyl-1-phenylcyclopropanecarboxamide]?
A: Metabolism in human liver microsomes (HLM), in words [1]: rapidly metabolized; HLM % turnover [1]: 62%

Q: With `O=C(NC1C2CC3CC(C2)CC1C3)C1(c2ccc(Cl)cc2)CC1` (centres unmarked) [Example 4, N-2-adamantyl-1-(4-chlorophenyl)cyclopropanecarboxamide] as the molecule, how does the “Metabolism in human liver microsomes” value [1] read?
A: rapidly metabolized

Q: And the HLM % turnover [1]?
A: 68%

Q: With `CC(C)(C(=O)NC1C2CC3CC1CC(C(=O)O)(C3)C2)N1CCN(c2ccc(C(F)(F)F)cn2)CC1` (centres unmarked) [Example 5, E-4-{2-Methyl-2-[4-(5-trifluoromethyl-pyridin-2-yl)-piperazin-1-yl]-propionylamino}-adamantane-1-carboxylic acid] as the molecule, how does the RLM % turnover [2] read?
A: 0%

Q: And the “Hepatocyte intrinsic clearance (CLint)” value [3]?
A: 1.5 mL/min/kg

Q: What about the “Hepatocyte intrinsic clearance (CLint)” value [4] of the same molecule?
A: 5.17 mL/min/kg

Q: What about the “Hepatocyte intrinsic clearance (CLint)” value [5] of the same molecule?
A: 4.67 mL/min/kg

Q: And the “Metabolic stability in liver microsomes, in words” value ([6]; dog liver microsomes)?
A: excellent metabolic stability

Q: What about the “Liver microsomal intrinsic clearance (CLint)” value ([6]; dog microsomes, 1 μM) of the same molecule?
A: 7.5 mL/min/kg

Q: And the “Liver microsomal intrinsic clearance (CLint)” value [7]?
A: 4.83 mL/min/kg

Q: What about the “Hepatocyte intrinsic clearance (CLint)” value [8] of the same molecule?
A: 3.67 mL/min/kg

Q: And the “Liver microsomal intrinsic clearance (CLint)” value [9]?
A: 127 mL/min/kg

Q: What about the HLM % turnover [1] of the same molecule?
A: 0%

Q: And the “Metabolic stability in liver microsomes, in words” value ([10]; monkey liver microsomes)?
A: excellent metabolic stability

Q: What about the “Liver microsomal intrinsic clearance (CLint)” value ([10]; monkey microsomes, 1 μM) of the same molecule?
A: 31.5 mL/min/kg

Q: What about the MLM % turnover [11] of the same molecule?
A: 0%

Q: And the “Hepatocyte intrinsic clearance (CLint)” value [12]?
A: 13.7 mL/min/kg

Q: And the “Liver microsomal intrinsic clearance (CLint)” value [13]?
A: 40 mL/min/kg
